Measurements reported in PubChem BioAssay (NCI).
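Interpolation was linear, between the two tested concentrations surrounding the appropriate level; five concentrations were tested over 48 hours in 96-well plates. Here, GI50 denotes the concentration required for 50% inhibition of growth. The concentration for full growth arrest is given as TGI.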

Columns and labels:
Assay in all cases: inhibition of tumour cell growth, NCI panel, 48 h
OVCAR-8 ovarian = system: OVCAR-8 ovarian
HS 578T breast = system: HS 578T breast
UACC-62 melanoma = system: UACC-62 melanoma
SF-295 CNS = system: SF-295 CNS
U251 CNS = system: U251 CNS
PC-3 prostate = system: PC-3 prostate
HOP-62 NSCLC = system: HOP-62 NSCLC
MDA-MB-231 breast = system: MDA-MB-231 breast
MOLT-4 leukemia = system: MOLT-4 leukemia
NCI-H226 lung = system: NCI-H226 lung
786-0 renal = system: 786-0 renal
A549 NSCLC = system: A549 NSCLC
RPMI-8226 leukemia = system: RPMI-8226 leukemia
SK-MEL-28 melanoma = system: SK-MEL-28 melanoma
A498 renal = system: A498 renal
RXF 393 renal = system: RXF 393 renal
MALME-3M melanoma = system: MALME-3M melanoma
SF-268 CNS = system: SF-268 CNS
SK-MEL-5 melanoma = system: SK-MEL-5 melanoma
OVCAR-4 ovarian = system: OVCAR-4 ovarian
CCRF-CEM leukemia = system: CCRF-CEM leukemia
SF-539 CNS = system: SF-539 CNS
SW-620 colon = system: SW-620 colon
NCI-H522 lung = system: NCI-H522 lung
IGROV1 ovarian = system: IGROV1 ovarian
DU-145 prostate = system: DU-145 prostate
HCC-2998 colon = system: HCC-2998 colon
SNB-75 CNS = system: SNB-75 CNS
KM12 colon = system: KM12 colon
COLO 205 colon = system: COLO 205 colon
SK-OV-3 ovarian = system: SK-OV-3 ovarian
T-47D breast = system: T-47D breast
OVCAR-5 ovarian = system: OVCAR-5 ovarian
MDA-MB-435 = system: MDA-MB-435
HT29 colon = system: HT29 colon
SNB-19 CNS = system: SNB-19 CNS
LOX IMVI melanoma = system: LOX IMVI melanoma
TK-10 renal = system: TK-10 renal
UO-31 renal = system: UO-31 renal
CAKI-1 renal = system: CAKI-1 renal
HCT-116 colon = system: HCT-116 colon
SN12C renal = system: SN12C renal
SR leukemia = system: SR leukemia
NCI-H23 lung = system: NCI-H23 lung
BT-549 breast = system: BT-549 breast
EKVX NSCLC = system: EKVX NSCLC
HOP-92 NSCLC = system: HOP-92 NSCLC
MCF7 breast = system: MCF7 breast
K-562 leukemia = system: K-562 leukemia
OVCAR-3 ovarian = system: OVCAR-3 ovarian
HL-60(TB) leukemia = system: HL-60(TB) leukemia
HCT-15 colon = system: HCT-15 colon
NCI-H460 lung = system: NCI-H460 lung
SK-MEL-2 melanoma = system: SK-MEL-2 melanoma
UACC-257 melanoma = system: UACC-257 melanoma
M14 melanoma = system: M14 melanoma
NCI/ADR-RES ovarian = system: NCI/ADR-RES ovarian
ACHN renal = system: ACHN renal
MDA-N = system: MDA-N

## C=C(C)[C@@H]1CC[C@]2(C(=O)N3CCN(C)CC3)CC[C@]3(C)[C@H](CC[C@@H]4[C@@]5(C)C/C(=C/c6ccncc6)[C@H](O)C(C)(C)[C@@H]5CC[C@]43C)[C@@H]12
OVCAR-8 ovarian
  GI50: 7.68 µM
  TGI: 30.7 µM
HS 578T breast
  GI50: 11.6 µM
  TGI: > 100 µM
UACC-62 melanoma
  GI50: 10.2 µM
  TGI: 27.9 µM
SF-295 CNS
  GI50: 7.2 µM
  TGI: 25.5 µM
U251 CNS
  GI50: 5.64 µM
  TGI: 19.6 µM
PC-3 prostate
  GI50: 2.75 µM
  TGI: 16.7 µM
HOP-62 NSCLC
  GI50: 10.1 µM
  TGI: 24.7 µM
MDA-MB-231 breast
  GI50: 4.46 µM
  TGI: 19.3 µM
MOLT-4 leukemia
  GI50: 2.36 µM
  TGI: 11 µM
NCI-H226 lung
  GI50: 7.01 µM
  TGI: 28.9 µM
786-0 renal
  GI50: 2.71 µM
  TGI: 13.3 µM
A549 NSCLC
  GI50: 5.2 µM
  TGI: > 100 µM
RPMI-8226 leukemia
  GI50: 3.01 µM
  TGI: 17 µM
SK-MEL-28 melanoma
  GI50: 7.46 µM
  TGI: 22.2 µM
A498 renal
  GI50: 17.4 µM
  TGI: 41.1 µM
RXF 393 renal
  GI50: 2.89 µM
  TGI: 10.5 µM
MALME-3M melanoma
  GI50: 2.08 µM
  TGI: 6.07 µM
SF-268 CNS
  GI50: 9.05 µM
  TGI: 57.6 µM
SK-MEL-5 melanoma
  GI50: 5.98 µM
  TGI: 18.5 µM
OVCAR-4 ovarian
  GI50: 7.08 µM
  TGI: > 100 µM
CCRF-CEM leukemia
  GI50: 3.3 µM
  TGI: 24.5 µM
SF-539 CNS
  GI50: 4.12 µM
  TGI: 16.5 µM
SW-620 colon
  GI50: 3.75 µM
  TGI: 17.7 µM
NCI-H522 lung
  GI50: 5.24 µM
  TGI: 25 µM
IGROV1 ovarian
  GI50: 6.62 µM
  TGI: 37.7 µM
DU-145 prostate
  GI50: 9.53 µM
  TGI: 24 µM
HCC-2998 colon
  GI50: 3.36 µM
  TGI: 13.1 µM
SNB-75 CNS
  GI50: 51.4 µM
  TGI: > 100 µM
KM12 colon
  GI50: 3.86 µM
  TGI: 17.7 µM
COLO 205 colon
  GI50: 3.16 µM
  TGI: 23 µM
SK-OV-3 ovarian
  GI50: 12 µM
  TGI: 96.5 µM
T-47D breast
  GI50: 3.02 µM
  TGI: 22.4 µM
OVCAR-5 ovarian
  GI50: 6.04 µM
  TGI: 26.8 µM
MDA-MB-435
  GI50: 8.29 µM
  TGI: 33.9 µM
HT29 colon
  GI50: 1.88 µM
  TGI: 11.2 µM
SNB-19 CNS
  GI50: 8.68 µM
  TGI: > 100 µM
LOX IMVI melanoma
  GI50: 4.01 µM
  TGI: 17.3 µM
TK-10 renal
  GI50: 15.5 µM
  TGI: 89.4 µM
UO-31 renal
  GI50: 5.37 µM
  TGI: 21 µM
CAKI-1 renal
  GI50: 5.82 µM
  TGI: 25.5 µM
HCT-116 colon
  GI50: 1.6 µM
  TGI: 4.46 µM
SN12C renal
  GI50: 6.22 µM
  TGI: 22.3 µM
SR leukemia
  GI50: 2.72 µM
  TGI: 10.2 µM
NCI-H23 lung
  GI50: 8.73 µM
  TGI: > 100 µM
BT-549 breast
  GI50: 4.33 µM
  TGI: 24.7 µM
EKVX NSCLC
  GI50: 6.04 µM
  TGI: 43.2 µM
HOP-92 NSCLC
  GI50: 2.88 µM
  TGI: 19.2 µM
MCF7 breast
  GI50: 3.29 µM
  TGI: 13.8 µM
K-562 leukemia
  GI50: 2.79 µM
OVCAR-3 ovarian
  GI50: 4.82 µM
  TGI: 17.2 µM
HL-60(TB) leukemia
  GI50: 2.29 µM
  TGI: 5.58 µM
HCT-15 colon
  GI50: 2.65 µM
  TGI: 12.2 µM
NCI-H460 lung
  GI50: 3.95 µM
  TGI: 17 µM
SK-MEL-2 melanoma
  GI50: 8.41 µM
  TGI: 26.2 µM
UACC-257 melanoma
  GI50: 5.45 µM
  TGI: 27.8 µM
M14 melanoma
  GI50: 3.44 µM
  TGI: 12.6 µM
NCI/ADR-RES ovarian
  GI50: 4.81 µM
  TGI: 23.2 µM
ACHN renal
  GI50: 6.6 µM
  TGI: > 100 µM

## COc1cc2c(NCCN(C)C)nc3c4cc5c(cc4ccc3c2cc1OC)OCO5
OVCAR-8 ovarian
  TGI: 6.97 µM
HS 578T breast
  TGI: 12.4 µM
UACC-62 melanoma
  TGI: 8.41 µM
SF-295 CNS
  TGI: 5.7 µM
U251 CNS
  TGI: 7.83 µM
PC-3 prostate
  TGI: 8.7 µM
HOP-62 NSCLC
  TGI: 7.09 µM
MDA-MB-231 breast
  TGI: 9.05 µM
MOLT-4 leukemia
  TGI: 5.3 µM
NCI-H226 lung
  TGI: 8.18 µM
786-0 renal
  TGI: 6.15 µM
A549 NSCLC
  TGI: 6.67 µM
RPMI-8226 leukemia
  TGI: 17.2 µM
SK-MEL-28 melanoma
  TGI: 9.16 µM
A498 renal
  TGI: 5.86 µM
RXF 393 renal
  TGI: 7.3 µM
MALME-3M melanoma
  TGI: 7.78 µM
SF-268 CNS
  TGI: 8.98 µM
SK-MEL-5 melanoma
  TGI: 5.87 µM
OVCAR-4 ovarian
  TGI: 7.91 µM
CCRF-CEM leukemia
  TGI: 6.44 µM
SF-539 CNS
  TGI: 7.73 µM
SW-620 colon
  TGI: 7.22 µM
NCI-H522 lung
  TGI: 8.02 µM
IGROV1 ovarian
  TGI: 5.82 µM
DU-145 prostate
  TGI: 7.32 µM
HCC-2998 colon
  TGI: 8.93 µM
SNB-75 CNS
  TGI: 5.39 µM
KM12 colon
  TGI: 8.07 µM
COLO 205 colon
  TGI: 5.82 µM
SK-OV-3 ovarian
  TGI: 8.65 µM
T-47D breast
  TGI: 11.5 µM
OVCAR-5 ovarian
  TGI: 6.71 µM
MDA-MB-435
  TGI: 6.79 µM
HT29 colon
  TGI: 6.56 µM
SNB-19 CNS
  TGI: 7.15 µM
TK-10 renal
  TGI: 5.88 µM
UO-31 renal
  TGI: 7.05 µM
CAKI-1 renal
  TGI: 5.88 µM
HCT-116 colon
  TGI: 6.77 µM
SN12C renal
  TGI: 8.17 µM
NCI-H23 lung
  TGI: 6.32 µM
EKVX NSCLC
  TGI: 8.25 µM
HOP-92 NSCLC
  TGI: 8.77 µM
MCF7 breast
  TGI: 6.07 µM
K-562 leukemia
  TGI: 7.49 µM
HL-60(TB) leukemia
  TGI: 9.52 µM
HCT-15 colon
  TGI: 6.56 µM
NCI-H460 lung
  TGI: 5.38 µM
SK-MEL-2 melanoma
  TGI: 9.94 µM
MDA-N
  TGI: 6.99 µM
UACC-257 melanoma
  TGI: 7.98 µM
M14 melanoma
  TGI: 7.4 µM
NCI/ADR-RES ovarian
  TGI: 8.31 µM
ACHN renal
  TGI: 4.01 µM
